# Tests used:
# Type in all cases: biochemical
# [1] = test system: HIV reverse transcriptase; assay: HIV reverse transcriptase activity with ADPRT, poly-ADP-ribosylated ADPRT and drug inhibitors of poly-ADP-ribosylation (FIG. 3, Example 4); conditions: for HIV reverse transcriptase activity: absence of ADPRT
# Experimental: Reverse transcriptase activity assay conditions were as described in Example 1. NAD was added in a concentration of 62.5 μM and ADPRT in a concentration of 0.5 μM. Inhibitors 6-amino-1,2-benzopyrone (6-ABP) or 5-iodo-6-amino-1,2-benzopyrone (5-I-6-ABP) were added in concentrations 1000 μM, and 400 μM, respectively.
# (§1) The medium (coctail) comprises 50 mM Tris-HCl pH 8.0; 60 mM KCl; 7 mM MgCl2; 40 mM DTT (dithiothreitol) 2 mM GSH (glutathione); 60 μg/ml whole histones/ml (Grade A, Sigma, St. Louis); poly (rA) oligo (dT)12-18 (Pharmacia, Piscataway, N. J.) and 50 μM M(0.1 μCalif.) [alfa ^32 P]TTP (ICN, Irvine, CA.) (Reverse transcriptase uses poly(rA) as template and the annealed oligo(dT) as primer for incorporating the labeled TTP).
# (§2) The reverse polymerization was started by adding 0.02 μg of recombinant reverse transcriptase protein (ERC BioServices, Rockville, Md.) into 50 μl of coctail. The reaction mixture incubated at 25° C. for 5 minutes.
# (§3) The reaction was stopped by adding 2 ml of ice cold 20% trichloroacetic acid and the precipitated nucleic acids were filtered onto glass fiber filters, dried with ethanol and their incorporated radioactivity counted in a liquid scintillation counter.
# Using generally the reverse transcriptase procedure described in Example 1, three groups of samples were prepared. The first group contained the coctail described in the Example 1 containing poly (rA).cndot.oligo (dT)12-18 as a template and drugs 6-ABP or 5-I-6-ABP in concentration 1,000 μM and 400 μM, respectively, without the presence of ADPRT.
# The second group contained the same ingredients as group 1 but ADPRT at a concentration to 0.5 μM was added to all samples.
# The third group contained the same ingredients as group 2 but NAD in a concentration of 62.5 μM was added.
# [2] = test system: Human recombinant HIV reverse transcriptase; assay: Effect of unmodified and ADP-ribosylated ADPRT on HIV reverse transcriptase activity (FIG. 1, Example 2)
# Experimental: The basic assay system for measurement of reverse transcriptase activity is described in Example 1. Human recombinant HIV reverse transcriptase used in the assay was obtained from HIV, ERC Bioservices. ADPRT used in this experiment is highly purified ADPRT protein prepared according to Anal. Biochem., 167:160 (1987). ADPRT was added to the reverse transcriptase assay system at various concentrations ranging from 0.01 to 1 μM. When the effect of […], pre-ADP-ribosylated ADPRT was assayed, the ADPRT enzyme was incubated with NAD and cofactors according to FEBS Letters, 212:73 (1987). The poly ADP-ribosylated ADPRT was isolated by centricon ultrafiltration and added in various concentration as shown in FIG. 1.
# as §1, §2, §3
# A small amount (300 μg) of ADPRT (0.5 μM) of final concentration was incubated with 100 mM NAD in 3 ml of 25 mM Tris-HCl (pH 7.4), 0.3% Tween 20 at 25° C. for three hours to render the protein auto-poly (ADP-ribosyl)ated, then concentrated to 3 mg/ml. Using generally the reverse transcriptase assay conditions as described in Example 1, the effect of automodified and unmodified ADPRT was monitored.
# [3] = test system: recombinant human HIV reverse transcriptase; assay: Activation of HIV reverse transcriptase by auto-(ADP-ribosylated) ADPRT (FIG. 2, Example 3); conditions: 0.5 μM ADPRT, no NAD
# Experimental: Such abrogation and its time dependency is further illustrated in FIG. 2 wherein the activation of HIV reverse transcriptase by auto-ADP-ribosylated ADPRT is expressed as % of reverse transcriptase activity. The experimental conditions are as described in Example 3. […] Samples in columns 3-5 were incubated for time periods as indicated.
# as §1, with “TTP). […]” for “TTP).”
# The reaction was stopped by adding 2 ml of ice cold 20% trichloroacetic acid and the precipitated nucleic acids were filtered onto glass fiber filters, dried with ethanol and their incorporated radioactivity counted in a liquid scintillation counter. […]
# The mixture was incubated at 25° C. for 5, 10 and 25 minutes, then the recombinant reverse transcriptase was added and the mixture was incubated for additional 5 minutes. The reaction was stopped, as described above, the precipitate was filtered and radioactivity counted.
compound,measurement,setting,value
"Nc1ccc2oc(=O)ccc2c1I [5-I-6-ABP, 5-iodo-6-amino-1,2-benzopyrone]",activity of reverse transcriptase,[1]; 0.5 μM ADPRT + 62.5 μM NAD + 5-I-6-ABP 400 μM (column 9),the same as the one seen in column 6
same,activity of reverse transcriptase,[1]; 0.5 μM ADPRT + 5-I-6-ABP 400 μM,only very slightly
same,activity of reverse transcriptase,"[1]; 0.5 μM ADPRT + 5-I-6-ABP 400 μM, listed as 5-I-ABP, 400 µM",about 50%
same,HIV reverse transcriptase activity,[1]; 5-I-6-ABP 400 μM,did not affect
"Nc1ccc2oc(=O)ccc2c1 [6-ABP, 6-amino-1,2-benzopyrone]",reverse transcriptase activity,[1]; 0.5 μM ADPRT + 62.5 μM NAD + 6-ABP 1000 μM,about 60%
same,activity of reverse transcriptase,[1]; 0.5 μM ADPRT + 6-ABP 1000 μM,only very slightly
same,activity of reverse transcriptase,"[1]; 0.5 μM ADPRT + 6-ABP 1000 μM, 1000 µM",about 50%
same,HIV reverse transcriptase activity,[1]; 6-ABP 1000 μM,did not affect
adenosine diphosphoribosyl transferase [ADPRT],inhibition of reverse transcriptase activity,[2]; 0.05 μM pure ADPRT,10%
same,effect on reverse transcription (FIG. 1 summary),[2]; 0.01 to 1 μM added to RT assay,inhibits RT in a concentration-dependent manner
same,inhibition of reverse transcriptase,[2]; around 1-1.3 μM ADPRT,75-80%
same,activity of reverse transcriptase,"[2]; around 1-1.3 μM ADPRT, control 100%",about 20%
same,depression/inhibition of reverse transcriptase activity,[3],about 50%
same,activity of reverse transcriptase,[1]; 0.5 μM pure ADPRT only (column 4),about 50%
